We go through 23 compounds from patent US7410975B2, “Small molecule toll-like receptor (TLR) antagonists” (Coley Pharmaceutical Group, Inc., priority 2003, dated 2008).

This test concerns the target T1, human TLR7 (hTLR7) (Homo sapiens, UniProt Q9NYK1).
T1 construct: expressed in transfected cells
T1 sequence (Q9NYK1 27-1049): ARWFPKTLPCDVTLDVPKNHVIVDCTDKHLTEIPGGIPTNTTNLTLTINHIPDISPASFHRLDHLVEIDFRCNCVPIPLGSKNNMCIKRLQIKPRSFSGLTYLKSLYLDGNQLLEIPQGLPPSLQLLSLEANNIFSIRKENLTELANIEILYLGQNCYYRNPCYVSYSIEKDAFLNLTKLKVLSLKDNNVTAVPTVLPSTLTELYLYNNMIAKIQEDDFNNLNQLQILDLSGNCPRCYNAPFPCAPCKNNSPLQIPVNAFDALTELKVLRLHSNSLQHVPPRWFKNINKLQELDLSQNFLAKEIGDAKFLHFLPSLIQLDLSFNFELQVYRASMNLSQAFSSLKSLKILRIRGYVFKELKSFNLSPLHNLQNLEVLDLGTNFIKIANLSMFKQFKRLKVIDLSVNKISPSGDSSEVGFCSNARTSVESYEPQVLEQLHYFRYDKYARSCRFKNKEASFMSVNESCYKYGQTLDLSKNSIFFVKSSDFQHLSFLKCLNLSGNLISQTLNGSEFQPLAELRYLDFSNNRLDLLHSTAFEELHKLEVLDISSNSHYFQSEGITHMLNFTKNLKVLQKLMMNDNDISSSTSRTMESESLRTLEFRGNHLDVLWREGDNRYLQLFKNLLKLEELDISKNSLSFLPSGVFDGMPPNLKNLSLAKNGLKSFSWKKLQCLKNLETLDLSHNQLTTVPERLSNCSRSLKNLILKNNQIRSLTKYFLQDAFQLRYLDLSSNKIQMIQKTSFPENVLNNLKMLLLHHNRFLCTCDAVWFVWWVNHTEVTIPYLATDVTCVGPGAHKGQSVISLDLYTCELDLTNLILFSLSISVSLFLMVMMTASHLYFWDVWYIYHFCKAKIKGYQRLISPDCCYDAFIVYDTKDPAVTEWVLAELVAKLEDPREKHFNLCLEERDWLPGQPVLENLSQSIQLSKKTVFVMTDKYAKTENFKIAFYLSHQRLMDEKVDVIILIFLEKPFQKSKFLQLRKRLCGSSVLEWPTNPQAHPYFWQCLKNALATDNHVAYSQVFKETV
The experiment in a line: Antagonist screen, hTLR7-NFκB-293 cells, NF-κB-luciferase reporter, with EC50 of R848. Format: cell-based. Particulars: compound at 0.5, 5, 50 μg/ml; EC50 concentration of R848; 16 h; NF-κB-luciferase. How it is done: The method is described in greater detail as follows. The cells for each individual cell clone (hTLR3-NFκB-293, hTLR7-NFκB-293, hTLR8-NFκB-293 and hTLR9-NFκB-293) were counted and seeded one day before the stimulation at 1.5×10^4 cells per well in 96-well cell culture plates. To become adherent the cells were incubated after seeding overnight at 37° C. in 5% CO2 humidified air.
The screen for each compound was performed at the same time for all of the receptors TLR3, TLR7, TLR8 and TLR9. Up to fifteen test compounds, each assayed in duplicate at each of three different final concentrations (0.5 μg/ml, 5 μg/ml, and 50 μg/ml), were used for 16 h cell stimulation on a single multiwell culture plate. A 4× final concentration master plate was created to prepare the different test compounds before they were added to the cells.
Controls were added as duplicates individually for each cell clone on the cell culture plate. Positive controls were used as follows (final concentrations): 50 μg/ml poly(I:C) for hTLR3-NFκB-293; 8 μM resiquimod (R848) for hTLR7-NFκB-293; 30 μM R848 for hTLR8-NFκB-293; and 2.5 μM CpG-ODN 2006 for hTLR9-NFκB-293. Media alone was used as negative control. After addition of controls and small molecules, the cell clones were additionally stimulated with the EC50 concentration of the appropriate receptor-specific ligand.
The mean value of wells H2 and H5 (each with cells and EC50 concentration of the appropriate receptor-specific ligand) divided by the mean of wells H3 and H6 (each with cells alone) yielded the baseline response (i.e., fold induction of luciferase activity) to EC50 concentration of the appropriate receptor-specific ligand.
After 16 h stimulation the supernatant was removed and the cells treated with lysis buffer and stored at −80° C. before measuring.
For each screen result a graphical documentation was performed.
The baseline result (measured with addition of the EC50 concentration of the receptor-specific ligand) for each cell culture plate was measured as described above. Antagonistic effects were measured by down regulation compared to the baseline. Antagonists were scored as follows: • 13: compounds for which there was clear down regulation at 0.5 μg/ml, 5 μg/ml, and 50 μg/ml; • 12: compounds for which there was clear down regulation at 5 μg/ml and 50 μg/ml; • 11: compounds for which there was clear down regulation only at 50 μg/ml; • —: compounds for which there was no clear down regulation even at 50 μg/ml. Agonists
Results were expressed as fold induction over baseline luciferase activity measured in the absence of R848. […] Additional screening was performed in like manner using additional small molecules selected from another library or specifically prepared for this purpose. Scoring is reported as above but as applied to TLR7.
(A reporter such as luciferase makes a cellular process visible.)
For `C=CCc1ccccc1OC1(c2ccccc2)OC(=O)c2ccccc21` (centres unmarked) [compound 957], the “hTLR7 (inhibitory effect, antagonist score)” value was 11 (compounds for which there was clear down regulation only at 50 μg/ml).

Take `COC(=O)c1ccc(C2CC(=O)Nc3c2ccc2ccccc32)cc1` (centres unmarked) [compound 965]: the “hTLR7 (inhibitory effect, antagonist score)” value was 12 (compounds for which there was clear down regulation at 5 μg/ml and 50 μg/ml).

As to `O=C(O)c1ccc(C2(c3ccc(C(=O)O)cc3)OC(=O)c3ccccc32)cc1` [compound 970], the “hTLR7 (inhibitory effect, antagonist score)” value is “— (compounds for which there was no clear down regulation even at 50 μg/ml)”.

Turning to `Cc1cc(OC(=O)C2C3CCCCC32)c(C(C)C)cc1C1(c2cc(C(C)C)c(OC(=O)C3C4CCCCC43)cc2C)OC(=O)c2ccccc21` (centres unmarked) [compound 974], the “hTLR7 (inhibitory effect, antagonist score)” value was 11 (compounds for which there was clear down regulation only at 50 μg/ml).

Consider `CCN(CC)CCCN(CC(=O)C1c2ccc(Cl)cc2NC(=O)c2ccccc21)C(=O)c1ccccc1` (centres unmarked) [compound 1013], for which the “hTLR7 (inhibitory effect, antagonist score)” value was “— (compounds for which there was no clear down regulation even at 50 μg/ml)”.

With `O=C1c2ccccc2C(=O)c2c1ccc1c(=O)n(C3CCCCC3)[nH]c21` [compound 1015], the “hTLR7 (inhibitory effect, antagonist score)” value is recorded as “— (compounds for which there was no clear down regulation even at 50 μg/ml)”.

For the compound `CCOC(=O)c1cc([N+](=O)[O-])cc2c1-c1ccc([N+](=O)[O-])cc1C2=C(C#N)C#N` [compound 1039], the “hTLR7 (inhibitory effect, antagonist score)” value is recorded as 11 (compounds for which there was clear down regulation only at 50 μg/ml).

Take `O=C1c2ccccc2C(=O)c2c1ccc1c(=O)n(-c3ccccc3)[nH]c21` [compound 1042]: the “hTLR7 (inhibitory effect, antagonist score)” value is 12 (compounds for which there was clear down regulation at 5 μg/ml and 50 μg/ml).

`O=C(c1cccc2c1-c1ccccc1/C2=N\O)N1CCCCC1` [compound 1050]: the “hTLR7 (inhibitory effect, antagonist score)” value was 12 (compounds for which there was clear down regulation at 5 μg/ml and 50 μg/ml).

Take `NC(=O)c1cccc2c1-c1ccccc1C2` [compound 1132]: the “hTLR7 (inhibitory effect, antagonist score)” value was 11 (compounds for which there was clear down regulation only at 50 μg/ml).

As for `NC(=O)c1cc(N)c2c(c1N)C(=O)c1ccccc1C2=O` [compound 1158], the “hTLR7 (inhibitory effect, antagonist score)” value is “— (compounds for which there was no clear down regulation even at 50 μg/ml)”.

With `CC(=O)Oc1cc(C)c(C2(c3cc(C(C)C)c(OC(C)=O)cc3C)OC(=O)c3ccccc32)cc1C(C)C` [compound 1161], the “hTLR7 (inhibitory effect, antagonist score)” value is 12 (compounds for which there was clear down regulation at 5 μg/ml and 50 μg/ml).

In the case of `COC(=O)c1cccc(C(O)(c2ccccc2)c2ccccc2)c1S(=O)(=O)C(C)(C)C` [compound 1187], the “hTLR7 (inhibitory effect, antagonist score)” value was 12 (compounds for which there was clear down regulation at 5 μg/ml and 50 μg/ml).

As for `CCOCCOC(=O)c1cc([N+](=O)[O-])cc2c1-c1c(cc([N+](=O)[O-])cc1[N+](=O)[O-])C2=C(C#N)C#N` [compound 1241], the “hTLR7 (inhibitory effect, antagonist score)” value was “— (compounds for which there was no clear down regulation even at 50 μg/ml)”.

For the compound `CC1CCN(C(=O)c2cccc3c2-c2ccccc2C3=O)CC1` [compound 1243], the “hTLR7 (inhibitory effect, antagonist score)” value is 11 (compounds for which there was clear down regulation only at 50 μg/ml).

In the case of `Cc1cccc(C2(c3cccc(C)c3)OC(=O)c3ccccc32)c1` [compound 1308], the “hTLR7 (inhibitory effect, antagonist score)” value is 12 (compounds for which there was clear down regulation at 5 μg/ml and 50 μg/ml).

`COCCCNC(=O)c1ccc2c(c1N)C(=O)c1ccccc1C2=O` [compound 1337]: the “hTLR7 (inhibitory effect, antagonist score)” value is listed as 11 (compounds for which there was clear down regulation only at 50 μg/ml).

With `O=C1Nc2ccccc2Oc2ccc([N+](=O)[O-])cc21` [compound 1352], the “hTLR7 (inhibitory effect, antagonist score)” value is 13 (compounds for which there was clear down regulation at 0.5 μg/ml, 5 μg/ml, and 50 μg/ml).

As for Flunarizinehydrochloride [compound 312], the “hTLR7 (inhibitory effect, antagonist score)” value is “— (compounds for which there was no clear down regulation even at 50 μg/ml)”.

Regarding Maprotilinehydrochloride [compound 346], the “hTLR7 (inhibitory effect, antagonist score)” value is 11 (compounds for which there was clear down regulation only at 50 μg/ml).

Metixene hydrochloride [compound 491]: the “hTLR7 (inhibitory effect, antagonist score)” value was 11 (compounds for which there was clear down regulation only at 50 μg/ml).

In the case of “Prochlorperazinedimaleate [compound 399]”, the “hTLR7 (inhibitory effect, antagonist score)” value is 12 (compounds for which there was clear down regulation at 5 μg/ml and 50 μg/ml).

As for “Trifluoperazinedihydrochloride [compound 313]”, the “hTLR7 (inhibitory effect, antagonist score)” value is recorded as 11 (compounds for which there was clear down regulation only at 50 μg/ml).
